Source: the NIST ThermoML archive (doi:10.1016/j.jct.2014.11.007)
Numbers after ± are expanded uncertainties.

Key:
[1] = 100 kPa, Liquid, Vibrating tube method
[2] = mn = molality of the nth substance listed, in mol/kg; conditions: 100 kPa, Liquid; for speed of sound: Frequency=3 MHz, Sing-around technique in a fixed-path interferometer; for mass density: Vibrating tube method

## O [water]
[1]; 293.15 K
  mass density: 998.272 ± 0.2 kg/m3
[1]; 308.15 K
  mass density: 994.108 ± 0.2 kg/m3
[1]; 313.15 K
  mass density: 992.29 ± 0.2 kg/m3

## O=C(O)[C@@H]1CCCN1 [L-proline] + O
[2]; 293.15 K, m1 = 0.01
  speed of sound: 1483.8 ± 1.6 m/s
  mass density: 998.631 ± 0.26 kg/m3
[2]; 293.15 K, m1 = 0.03
  speed of sound: 1485.8 ± 1.6 m/s
  mass density: 999.275 ± 0.26 kg/m3
[2]; 293.15 K, m1 = 0.05
  speed of sound: 1487.4 ± 1.6 m/s
  mass density: 999.919 ± 0.26 kg/m3
[2]; 298.15 K, m1 = 0.01
  speed of sound: 1497.8 ± 1.6 m/s
  mass density: 997.474 ± 0.26 kg/m3
[2]; 298.15 K, m1 = 0.03
  speed of sound: 1499.8 ± 1.6 m/s
  mass density: 998.109 ± 0.26 kg/m3
[2]; 298.15 K, m1 = 0.05
  speed of sound: 1501 ± 1.6 m/s
  mass density: 998.747 ± 0.26 kg/m3
[2]; 303.15 K, m1 = 0.01
  speed of sound: 1510.1 ± 1.6 m/s
  mass density: 996.082 ± 0.26 kg/m3
[2]; 303.15 K, m1 = 0.03
  speed of sound: 1511.8 ± 1.6 m/s
  mass density: 996.709 ± 0.26 kg/m3
[2]; 303.15 K, m1 = 0.05
  speed of sound: 1512.9 ± 1.6 m/s
  mass density: 997.338 ± 0.26 kg/m3
[2]; 308.15 K, m1 = 0.01
  speed of sound: 1520.7 ± 1.6 m/s
  mass density: 994.462 ± 0.26 kg/m3
[2]; 308.15 K, m1 = 0.03
  speed of sound: 1522.4 ± 1.6 m/s
  mass density: 995.083 ± 0.26 kg/m3
[2]; 308.15 K, m1 = 0.05
  speed of sound: 1523.5 ± 1.6 m/s
  mass density: 995.708 ± 0.26 kg/m3
[2]; 313.15 K, m1 = 0.01
  speed of sound: 1529.8 ± 1.6 m/s
  mass density: 992.639 ± 0.26 kg/m3
[2]; 313.15 K, m1 = 0.03
  speed of sound: 1531.4 ± 1.6 m/s
  mass density: 993.259 ± 0.26 kg/m3
[2]; 313.15 K, m1 = 0.05
  speed of sound: 1532.3 ± 1.6 m/s
  mass density: 993.88 ± 0.26 kg/m3

## NCC(=O)O [2-aminoacetic acid] + O
[2]; 293.15 K, m1 = 0.01
  speed of sound: 1483.7 ± 1.5 m/s
[2]; 293.15 K, m1 = 0.03
  speed of sound: 1484.5 ± 1.5 m/s
  mass density: 999.313 ± 0.2 kg/m3
[2]; 293.15 K, m1 = 0.05
  speed of sound: 1485.7 ± 1.5 m/s
  mass density: 999.93 ± 0.2 kg/m3
[2]; 298.15 K, m1 = 0.01
  speed of sound: 1497.8 ± 1.5 m/s
  mass density: 997.478 ± 0.2 kg/m3
[2]; 298.15 K, m1 = 0.03
  speed of sound: 1498.5 ± 1.5 m/s
  mass density: 998.145 ± 0.2 kg/m3
[2]; 298.15 K, m1 = 0.05
  speed of sound: 1499.6 ± 1.5 m/s
  mass density: 998.761 ± 0.2 kg/m3
[2]; 303.15 K, m1 = 0.01
  speed of sound: 1510.2 ± 1.5 m/s
[2]; 303.15 K, m1 = 0.03
  speed of sound: 1510.9 ± 1.5 m/s
  mass density: 996.744 ± 0.2 kg/m3
[2]; 303.15 K, m1 = 0.05
  speed of sound: 1511.9 ± 1.5 m/s
  mass density: 997.353 ± 0.2 kg/m3
[2]; 308.15 K, m1 = 0.01
  speed of sound: 1520.8 ± 1.5 m/s
[2]; 308.15 K, m1 = 0.03
  speed of sound: 1521.5 ± 1.5 m/s
  mass density: 995.118 ± 0.2 kg/m3
[2]; 308.15 K, m1 = 0.05
  speed of sound: 1522.5 ± 1.5 m/s
[2]; 313.15 K, m1 = 0.01
  speed of sound: 1529.8 ± 1.5 m/s
[2]; 313.15 K, m1 = 0.03
  speed of sound: 1530.5 ± 1.5 m/s
  mass density: 993.306 ± 0.2 kg/m3
[2]; 313.15 K, m1 = 0.05
  speed of sound: 1531.5 ± 1.5 m/s
  mass density: 993.898 ± 0.2 kg/m3
